The results in this text go back to US12421240B2, “Hydropyrazino[1,2-d][1,4]diazepine compounds for the treatment of autoimmune disease” (Hoffmann-La Roche Inc., priority 2019, dated 2025).

The assay concerns the target T1, human TLR7 (Homo sapiens, UniProt Q9NYK1).
T1 sequence (Q9NYK1 27-1049): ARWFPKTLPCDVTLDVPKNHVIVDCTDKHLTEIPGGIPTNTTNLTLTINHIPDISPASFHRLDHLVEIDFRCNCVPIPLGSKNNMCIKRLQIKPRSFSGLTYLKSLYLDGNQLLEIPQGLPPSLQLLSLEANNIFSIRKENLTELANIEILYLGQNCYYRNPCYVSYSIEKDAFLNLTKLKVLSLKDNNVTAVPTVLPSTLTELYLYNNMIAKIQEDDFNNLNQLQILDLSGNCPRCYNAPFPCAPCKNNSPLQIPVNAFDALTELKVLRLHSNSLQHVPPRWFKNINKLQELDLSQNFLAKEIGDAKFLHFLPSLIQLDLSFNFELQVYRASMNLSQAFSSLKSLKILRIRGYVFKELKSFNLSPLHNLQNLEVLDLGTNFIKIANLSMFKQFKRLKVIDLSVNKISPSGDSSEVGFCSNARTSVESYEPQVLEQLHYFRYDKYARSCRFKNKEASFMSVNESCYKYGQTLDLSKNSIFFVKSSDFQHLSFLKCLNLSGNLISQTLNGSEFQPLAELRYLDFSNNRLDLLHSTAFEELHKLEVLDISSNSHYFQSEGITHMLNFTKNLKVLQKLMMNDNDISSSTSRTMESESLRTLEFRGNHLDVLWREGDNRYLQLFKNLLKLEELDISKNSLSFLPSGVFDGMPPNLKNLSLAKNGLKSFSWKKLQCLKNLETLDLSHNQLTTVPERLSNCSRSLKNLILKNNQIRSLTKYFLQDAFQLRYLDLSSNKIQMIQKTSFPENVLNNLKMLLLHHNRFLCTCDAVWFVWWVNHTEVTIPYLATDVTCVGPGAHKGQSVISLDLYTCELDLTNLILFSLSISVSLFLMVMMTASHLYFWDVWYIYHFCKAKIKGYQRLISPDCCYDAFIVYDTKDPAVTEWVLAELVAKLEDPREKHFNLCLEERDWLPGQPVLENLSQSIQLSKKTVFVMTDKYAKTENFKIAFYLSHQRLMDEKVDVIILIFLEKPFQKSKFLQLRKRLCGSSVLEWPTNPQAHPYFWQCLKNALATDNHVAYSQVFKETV
The assay is described as follows: HEK293-Blue-hTLR-7 cells assay (SEAP reporter, R848 stimulation). The assay is classed as cell-based. The note with it: HEK293-Blue-hTLR7 cells, R848 ligand, 20 hrs; read-out: HEK/hTLR7 IC50. The method, then:
The following tests were carried out in order to determine the activity of the compounds of formula (I), (Ia) or (Ib) in HEK293-Blue-hTLR-7/8/9 cells assay.
HEK293-Blue-hTLR-7 Cells Assay:
A stable HEK293-Blue-hTLR-7 cell line was purchased from InvivoGen (Cat. #: hkb-htlr7, San Diego, California, USA). These cells were originally designed for studying the stimulation of human TLR7 by monitoring the activation of NF-κB. A SEAP (secreted embryonic alkaline phosphatase) reporter gene was placed under the control of the IFN-β minimal promoter fused to five NF-κB and AP-1-binding sites. The SEAP was induced by activating NF-κB and AP-1 via stimulating HEK-Blue hTLR7 cells with TLR7 ligands. Therefore the reporter expression was declined by TLR7 antagonist under the stimulation of a ligand, such as R848 (Resiquimod), for incubation of 20 hrs. The cell culture supernatant SEAP reporter activity was determined using QUANTI-Blue™ kit (Cat. #: rep-qb1, Invivogen, San Diego, Ca., USA) at a wavelength of 640 nm, a detection medium that turns purple or blue in the presence of alkaline phosphatase.
HEK293-Blue-hTLR7 cells were incubated at a density of 250,000-450,000 cells/mL in a volume of 170 μL in a 96-well plate in Dulbecco's Modified Eagle's medium (DMEM) containing 4.5 g/L glucose, 50 U/mL penicillin, […], […], 2 mM L-glutamine, 10% (v/v) heat-inactivated fetal bovine serum with addition of 20 μL test compound in a serial dilution in the presence of final DMSO at 1% and 10 μL of 20 uM R848 in above DMEM, perform incubation under 37° C. in a CO2 incubator for 20 hrs. Then 20 μL of the supernatant from each well was incubated with 180 μL Quanti-blue substrate solution at 37° C. for 2 hrs and the absorbance was read at 620655 nm using a spectrophotometer. The signaling pathway that TLR7 activation leads to downstream NF-κB activation has been widely accepted, and therefore similar reporter assay was modified for evaluating TLR7 antagonist.

SMILES strings stand for the structures.

As to `C[C@@H]1CN(c2ccc(C#N)c3ncccc23)C[C@@H]2CCN(Cc3cnc4c(c3)CNCC4)CCN21` [Example 10, 5-[(4R,10aS)-4-methyl-8-(5,6,7,8-tetrahydro-1,6-naphthyridin-3-ylmethyl)-1,3,4,6,7,9,10,10a-octahydropyrazino[1,2-d][1,4]diazepin-2-yl]quinoline-8-carbonitrile], the IC50 is 9.3 nM. For `C[C@@H]1CN(c2ccc(C#N)c3ncccc23)C[C@@H]2CCN(c3ccc4c(n3)CNCC4)CCN21` [Example 5, 5-[(4R,10aS)-4-methyl-8-(5,6,7,8-tetrahydro-1,7-naphthyridin-2-yl)-1,3,4,6,7,9,10,10a-octahydropyrazino[1,2-d][1,4]diazepin-2-yl]quinoline-8-carbonitrile], the IC50 was determined as 38.5 nM. Consider `C[C@@H]1CN(c2ccc(C#N)c3ncccc23)C[C@@H]2CCN(Cc3ncc(N4CCNCC4)cc3F)CCN21` [Example 23, 5-[(4R,10aS)-8-[(3-fluoro-5-piperazin-1-yl-2-pyridyl)methyl]-4-methyl-1,3,4,6,7,9,10,10a-octahydropyrazino[1,2-d][1,4]diazepin-2-yl]quinoline-8-carbonitrile], for which the IC50 stood at 2.9 nM. In the case of `C[C@@H]1CN(c2ccc(C#N)c3ncccc23)C[C@@H]2CCN(Cc3ccc(N4C[C@@H](N)[C@@H](F)C4)cn3)CCN21` [Example 20, 5-[(4R,10aS)-8-[[5-[(3R,4S)-3-amino-4-fluoro-pyrrolidin-1-yl]-2-pyridyl]methyl]-4-methyl-1,3,4,6,7,9,10,10a-octahydropyrazino[1,2-d][1,4]diazepin-2-yl]quinoline-8-carbonitrile], the IC50 stood at 1.6 nM. As for `C[C@@H]1CN(c2ccc(C#N)c3ncccc23)C[C@@H]2CCN(c3ccc([C@H]4CNCCO4)cc3)CCN21` [Example 3, 5-[(4R,10aS)-4-methyl-8-[4-[(2S)-morpholin-2-yl]phenyl]-1,3,4,6,7,9,10,10a-octahydropyrazino[1,2-d][1,4]diazepin-2-yl]quinoline-8-carbonitrile], the figure is 54 nM; as for `C[C@@H]1CN(c2ccc(C#N)c3ncccc23)C[C@@H]2CCN(c3cc4c(cn3)CNCC4)CCN21` [Example 7, 5-[(4R,10aS)-4-methyl-8-(5,6,7,8-tetrahydro-2,7-naphthyridin-3-yl)-1,3,4,6,7,9,10,10a-octahydropyrazino[1,2-d][1,4]diazepin-2-yl]quinoline-8-carbonitrile], 61.3 nM. As to `C[C@@H]1CN(c2ccc(C#N)c3ncccc23)C[C@@H]2CCN(c3ccc(N4CCNCC4)nc3)CCN21` [Example 1, 5-[(4R,10aS)-4-methyl-8-(6-piperazin-1-yl-3-pyridyl)-1,3,4,6,7,9,10,10a-octahydropyrazino [1,2-d][1,4]diazepin-2-yl]quinoline-8-carbonitrile], the IC50 was 88.5 nM. As to `C[C@@H]1CN(c2ccc(C#N)c3ncccc23)C[C@@H]2CCN(Cc3ccc(N4CCNCC4)nc3)CCN21` [Example 17, 5-[(4R,10aS)-4-methyl-8-[(6-piperazin-1-yl-3-pyridyl)methyl]-1,3,4,6,7,9,10,10a-octahydropyrazino[1,2-d][1,4]diazepin-2-yl]quinoline-8-carbonitrile], the IC50 came out at 1.2 nM. In the case of `CO[C@@H]1CN(c2ccc(CN3CC[C@H]4CN(c5ccc(C#N)c6ncccc56)C[C@@H](C)N4CC3)nc2)C[C@H]1N` [Example 22, 5-[(4R,10aS)-8-[[5-[(3R,4R)-3-amino-4-methoxy-pyrrolidin-1-yl]-2-pyridyl]methyl]-4-methyl-1,3,4,6,7,9,10,10a-octahydropyrazino[1,2-d][1,4]diazepin-2-yl]quinoline-8-carbonitrile] it was 4.9 nM; in that of `C[C@@H]1CN(c2ccc(C#N)c3ncccc23)C[C@@H]2CCN(Cc3cnc(N4CCNCC4)cn3)CCN21` [Example 15, 5-[(4R,10aS)-4-methyl-8-[(5-piperazin-1-ylpyrazin-2-yl)methyl]-1,3,4,6,7,9,10,10a-octahydropyrazino[1,2-d][1,4]diazepin-2-yl]quinoline-8-carbonitrile], 2.2 nM; in that of `C[C@@H]1CN(c2cc(=O)n(C)c3ncccc23)C[C@@H]2CCN(Cc3ccc4c(c3)CNCC4)CCN21` [Example 28, 4-[(4R,10aS)-4-methyl-8-(1,2,3,4-tetrahydroisoquinolin-7-ylmethyl)-1,3,4,6,7,9,10,10a-octahydropyrazino[1,2-d][1,4]diazepin-2-yl]-1-methyl-1,8-naphthyridin-2-one], 36.3 nM.

On to `C[C@@H]1CN(c2ccc(C#N)c3ncccc23)C[C@@H]2CCN(Cc3ncc(N4CCNCC4)cn3)CCN21` [Example 13, 5-[(4R,10aS)-4-methyl-8-[(5-piperazin-1-ylpyrimidin-2-yl)methyl]-1,3,4,6,7,9,10,10a-octahydropyrazino[1,2-d][1,4]diazepin-2-yl]quinoline-8-carbonitrile], for which the IC50 came out at 49.6 nM. Take `C[C@@H]1CN(c2ccc(C#N)c3ncccc23)C[C@@H]2CCN(Cc3cccc(N4CCNCC4)n3)CCN21` [Example 18, 5-[(4R,10aS)-4-methyl-8-[(6-piperazin-1-yl-2-pyridyl)methyl]-1,3,4,6,7,9,10,10a-octahydropyrazino[1,2-d][1,4]diazepin-2-yl]quinoline-8-carbonitrile]: the IC50 was found to be 12.1 nM. In the case of `CO[C@@H]1CN(c2cnc(CN3CC[C@H]4CN(c5ccc(C#N)n6ncc(F)c56)C[C@@H](C)N4CC3)c(F)c2)C[C@H]1N` [Example 27, 4-[(4R,10aS)-8-[[5-[(3R,4R)-3-amino-4-methoxy-pyrrolidin-1-yl]-3-fluoro-2-pyridyl]methyl]-4-methyl-1,3,4,6,7,9,10,10a-octahydropyrazino[1,2-d][1,4]diazepin-2-yl]-3-fluoro-pyrazolo[1,5-a]pyridine-7-carbonitrile], the IC50 stood at 8.5 nM. `CO[C@@H]1CN(c2cnc(CN3CC[C@H]4CN(c5ccc(C#N)c6ncccc56)C[C@@H](C)N4CC3)c(F)c2)C[C@H]1N` [Example 24, 5-[(4R,10aS)-8-[[5-[(3R,4R)-3-amino-4-methoxy-pyrrolidin-1-yl]-3-fluoro-2-pyridyl]methyl]-4-methyl-1,3,4,6,7,9,10,10a-octahydropyrazino[1,2-d][1,4]diazepin-2-yl]quinoline-8-carbonitrile]: the IC50 was determined as 3.2 nM. On to `C[C@@H]1CN(c2ccc(C#N)c3ncccc23)C[C@@H]2CCN(Cc3cc4c(cn3)CNCC4)CCN21` [Example 8, 5-[(4R,10aS)-4-methyl-8-(5,6,7,8-tetrahydro-2,7-naphthyridin-3-ylmethyl)-1,3,4,6,7,9,10,10a-octahydropyrazino[1,2-d][1,4]diazepin-2-yl]quinoline-8-carbonitrile], for which the IC50 came out at 14.3 nM.

Regarding `C[C@@H]1CN(c2ccc(C#N)c3ncccc23)C[C@@H]2CCN(c3ccc4c(n3)CCNC4)CCN21` [Example 6, 5-[(4R,10aS)-4-methyl-8-(5,6,7,8-tetrahydro-1,6-naphthyridin-2-yl)-1,3,4,6,7,9,10,10a-octahydropyrazino[1,2-d][1,4]diazepin-2-yl]quinoline-8-carbonitrile], the IC50 was determined as 48.1 nM.
